This passage reports IC50 results from US10781185B2, “Heterocyclic compounds for the inhibition of PASK” (BioEnergenix LLC, priority 2009, dated 2020).

Assay [1] concerns the target PASK (Homo sapiens (Human), UniProt Q96RG2). The assay can be described thus: PAS Kinase FRET Assay. The assay is classed as biochemical. The note with it: TR-FRET, Ulight-peptide substrate; read-out: IC50 Kinase Domain. An excerpt: PAS Kinase FRET Assay The aim of the FRET assay is to determine the inhibition potential of test compounds on targeted kinase. This assay platform provides a homogenous screening method for measuring kinase activity by quantitating the amount of phospho-substrate in solution following a kinase reaction. In the presence of kinase and ATP, the Ulight-peptide is phosphorylated and captured by an anti-phospho-substrate antibody, which brings the Eu chelate donor and Ulight acceptor dyes into close proximity. […] The contents of the plate were and incubated at RT for 1 h. The reaction was stopped by adding 5 μl of stop solution to each test well followed by mixing and incubation at RT for 10 minutes. 5 μl of detection mix (detection antibody diluted in detection buffer) was added; the contents of the plate were mixed and then incubated in the dark for 1 hour at RT. […] The results were graphed to calculate the EC50. Titration of ATP at the EC50 concentration of kinase to determine ATP Km,app. was performed using the following method. […] The contents of the plate were and incubated at RT for 1 h. The reaction was stopped by adding 5 μl of stop solution to each test well followed by mixing and incubation at RT for 10 minutes. 5 μl of detection mix (detection antibody diluted in detection buffer) was added; the contents of the plate were mixed and then incubated in the dark for 1 hour at RT. […] The results were graphed to calculate the EC50 as the ATP Km,app. […] If compound is not soluble under this condition, it was diluted to 3 mM. Kinase reaction buffer was prepared containing 10 mM MgCl2, 50 mM HEPES, 1 mM EGTA, 0.01% TWEEN-20, 2 mM DTT. […] As a positive control, 2.5 μl of positive compound was added to assay wells, and 2.5 μl of DMSO to assay wells as vehicle control. Kinase solution was prepared in reaction buffer at 2× final assay concentration. Kinase solution (5 μl) was added to each well of the assay plate. The substrate and ATP solution was prepared in kinase reaction buffer at 4× final assay concentration. The kinase reaction was started by adding 2.5 μl of substrate+ATP mix solution to each well of the assay plate. The plate is mixed on a plate shaker; then covered and allowed to react for 2 hours in the dark at 25° C. without shaking. The reaction was stopped by adding 5 μl of stop solution to each test well followed by mixing and incubation at RT for 10 minutes in the dark. 5 μl of detection mix (detection antibody diluted in detection buffer) was added; the contents of the plate were mixed and then incubated in the dark for 1 hour at RT.
For orientation: TR-FRET usually uses a lanthanide donor and a delayed reading to cut background.

Assay [2] addresses PASK (UniProt # Q96RG2; human recombinant N-terminal GST tagged construct, residues 879-1323) (Homo sapiens (Human), UniProt Q96RG2). Put plainly: PASK ATP Radiochemical Assay. Type of assay: biochemical. The note with it: 33P-ATP radiochemical, Myelin Basic Protein substrate; read-out: IC50 Kinase Domain. The protocol: PASK ATP Radiochemical Assay
Test compounds in DMSO are then added and the mixture, followed by delivery of ^33P-ATP (specific activity 0.01 μCi/μl final) to initiate the reaction. […] The entire reaction mixture is washed through onto a P81 Phosphocellulose paper and washed three times for 10 minutes in 75 mM phosphoric acid and once in methanol prior to drying and scintillation counting.

The structures appear in SMILES notation.

Chain of PASK (Homo sapiens (Human), UniProt Q96RG2) (Q96RG2 999-1251): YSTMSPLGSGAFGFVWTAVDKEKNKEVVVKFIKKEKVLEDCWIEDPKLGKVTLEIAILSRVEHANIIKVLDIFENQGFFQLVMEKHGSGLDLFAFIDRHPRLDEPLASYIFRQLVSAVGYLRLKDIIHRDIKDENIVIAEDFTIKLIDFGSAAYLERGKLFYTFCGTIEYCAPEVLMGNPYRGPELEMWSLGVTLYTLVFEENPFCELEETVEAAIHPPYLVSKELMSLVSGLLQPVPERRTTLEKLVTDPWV
Chain of PASK (UniProt # Q96RG2; human recombinant N-terminal GST tagged construct, residues 879-1323) (Homo sapiens (Human), UniProt Q96RG2) (Q96RG2 879-1323, stated change not applied): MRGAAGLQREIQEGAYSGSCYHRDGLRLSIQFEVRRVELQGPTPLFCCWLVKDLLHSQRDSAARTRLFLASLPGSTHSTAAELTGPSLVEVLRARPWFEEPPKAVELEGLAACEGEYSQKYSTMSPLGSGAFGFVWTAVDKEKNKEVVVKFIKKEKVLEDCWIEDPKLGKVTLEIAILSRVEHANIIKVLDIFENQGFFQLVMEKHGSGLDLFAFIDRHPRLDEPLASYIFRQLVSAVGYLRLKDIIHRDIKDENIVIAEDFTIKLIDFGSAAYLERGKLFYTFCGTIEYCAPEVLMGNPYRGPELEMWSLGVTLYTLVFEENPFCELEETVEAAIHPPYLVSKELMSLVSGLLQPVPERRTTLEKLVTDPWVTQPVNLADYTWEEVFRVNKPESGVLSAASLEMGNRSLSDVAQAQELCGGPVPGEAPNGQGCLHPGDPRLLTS

In general, IC50 refers to the point on the concentration scale where inhibition reaches its midpoint. Take `C[C@H]1CCCN1c1nc2cc(C(=O)O)ccc2nc1-c1ccc2c(c1)OCO2` [Example 83, 2-(Benzo[d][1,3]dioxol-5-yl)-3-((S)-2-methylpyrrolidin-1-yl)quinoxaline-6-carboxylic acid]: the IC50 on PASK [1] is at most 10 µM; at PASK [2] it was under 10 µM.

`O=C(O)c1ccc2nc(-c3ccccc3)c(N3CCC[C@@H]3C(F)(F)F)nc2c1` [Example 65, (R)-2-Phenyl-3-(2-(trifluoromethyl)pyrrolidin-1-yl)quinoxaline-6-carboxylic acid]: the IC50 was at most 10 µM at PASK [1] and under 10 µM on PASK [2].

Take `COc1ccc(-c2nc3ccc(C(=O)O)cc3nc2N(C)C(C)C)cc1` [Example 58, 3-(Isopropyl(methyl)amino)-2-(4-methoxyphenyl)quinoxaline-6-carboxylic acid]: the IC50 on PASK [1] was at most 10 µM; at PASK [2] it was under 10 µM.

As for `CC(C)N(C)c1nc2cc(C(=O)O)ccc2nc1-c1cc2ccccc2o1` [Example 89, 2-(Benzofuran-2-yl)-3-(isopropyl(methyl)amino)quinoxaline-6-carboxylic acid], the IC50 on PASK [1] is at most 10 µM; at PASK [2] it was under 10 µM.

Turning to `O=C(O)c1ccc2nc(-c3ccccc3)c(N3CCN(c4cccc(Cl)c4)CC3)nc2c1` [Example 3, 3-(4-(3-Chlorophenyl)piperazin-1-yl)-2-phenylquinoxaline-6-carboxylic acid], the IC50 at PASK [2] was under 10 µM.

In the case of `CC(C)N(C)c1nc2cc(C(=O)O)ccc2nc1-c1ccc2c(c1)OCO2` [Example 77, 2-(Benzo[d][1,3]dioxol-5-yl)-3-(isopropyl(methyl)amino)quinoxaline-6-carboxylic acid], the values for the IC50 at PASK [1] and at PASK [2] were at most 10 µM and under 10 µM, respectively.

As for `O=C(O)c1ccc2nc(-c3ccc(F)cc3)c(N3CCCCC3)nc2c1` [Example 75, 2-(4-Fluorophenyl)-3-(piperidin-1-yl)quinoxaline-6-carboxylic acid], the IC50 at PASK [1] is at most 10 µM; at PASK [2] it was under 10 µM.

Regarding `CN1CCN(c2nc3cc(C(=O)O)ccc3nc2-c2ccccc2)CC1` [Example 4, 3-(4-Methylpiperazin-1-yl)-2-phenylquinoxaline-6-carboxylic acid], on PASK [2], the IC50 is over 10 µM.

In the case of `CC(C)N(C)c1nc2cc(C(=O)O)ccc2nc1-c1ccc(F)c(F)c1` [Example 63, 2-(3,4-Difluorophenyl)-3-(isopropyl(methyl)amino)quinoxaline-6-carboxylic acid], the figures for the IC50 on PASK [1] and at PASK [2] were at most 10 µM and under 10 µM, respectively.

For `O=C(O)c1ccc2nc(-c3ccccc3)c(N3CCN(c4ccccn4)CC3)nc2c1` [Example 2, 2-Phenyl-3-(4-(pyridin-2-yl)piperazin-1-yl)quinoxaline-6-carboxylic acid], the IC50 at PASK [2] is under 10 µM.

In the case of `CC(C)N(C)c1nc2cc(C(=O)O)ccc2nc1-c1ccc(Cl)cc1` [Example 64, 2-(4-Chlorophenyl)-3-(isopropyl(methyl)amino)quinoxaline-6-carboxylic acid], the IC50 at PASK [1] was at most 10 µM; at PASK [2], under 10 µM.

With `CC(C)N(C)c1nc2cc(C(=O)O)ccc2nc1-c1ccc2[nH]ccc2c1` [Example 84, 2-(1H-Indol-5-yl)-3-(isopropyl(methyl)amino)quinoxaline-6-carboxylic acid], the IC50 is at most 10 µM on PASK [1] and under 10 µM at PASK [2].

Consider `O=C(O)c1ccc2nc(-c3ccccc3)c(N3CCN(c4ccc(Cl)cc4)CC3)nc2c1` [Example 8, 3-(4-(4-Chlorophenyl)piperazin-1-yl)-2-phenylquinoxaline-6-carboxylic acid], for which the IC50 on PASK [2] is under 10 µM.

Take `O=C(O)c1ccc2nc(-c3ccccc3)c(N3CCC(c4ccc(Cl)cc4)CC3)nc2c1` [Example 15, 3-(4-(4-Chlorophenyl)piperidin-1-yl)-2-phenylquinoxaline-6-carboxylic acid]: at PASK [2], the IC50 was under 10 µM.

In the case of `O=C(O)c1ccc2nc(-c3ccccc3)c(N3CCN(c4ccccc4)CC3)nc2c1` [Example 6, 2-Phenyl-3-(4-phenylpiperazin-1-yl)quinoxaline-6-carboxylic acid], the IC50 at PASK [2] was under 10 µM.

On to `COc1ccc(N2CCN(c3nc4cc(C(=O)O)ccc4nc3-c3ccccc3)CC2)cc1` [Example 9, 3-(4-(4-Methoxyphenyl)piperazin-1-yl)-2-phenylquinoxaline-6-carboxylic acid], for which the IC50 at PASK [2] is under 10 µM.

Take `O=C(O)c1ccc2nc(-c3ccccc3)c(N3CCC(c4ccccc4)CC3)nc2c1` [Example 13, 2-Phenyl-3-(4-phenylpiperidin-1-yl)quinoxaline-6-carboxylic acid]: the IC50 at PASK [2] is under 10 µM.

On to `O=C(O)c1ccc2nc(-c3ccccc3)c(N3CCCCC3)nc2c1` [Example 12, 2-Phenyl-3-(piperidin-1-yl)quinoxaline-6-carboxylic acid], for which the IC50 at PASK [2] was under 10 µM.

With `COC[C@H]1CCCN1c1nc2cc(C(=O)O)ccc2nc1-c1ccc(F)cc1` [Example 93, (R)-2-(4-Fluorophenyl)-3-(2-(methoxymethyl)pyrrolidin-1-yl)quinoxaline-6-carboxylic acid], the IC50 at PASK [1] was at most 10 µM.

Take `CN(c1nc2cc(C(=O)O)ccc2nc1-c1ccc(F)cc1)C1CC1` [Example 92, 3-(Cyclopropyl(methyl)amino)-2-(4-fluorophenyl)quinoxaline-6-carboxylic acid]: at PASK [1], the IC50 is at most 10 µM.

On to `CC(C)N(C)c1nc2cc(C(=O)O)ccc2nc1-c1cnc2ccccc2c1` [Example 99, 3-(Isopropyl(methyl)amino)-2-(quinolin-3-yl)quinoxaline-6-carboxylic acid], for which the IC50 at PASK [1] is at most 10 µM.

Turning to `O=C(O)c1ccc2nc(-c3ccccc3)c(N3CCC(c4cccc(Cl)c4)CC3)nc2c1` [Example 10, 3-(4-(3-Chlorophenyl)piperidin-1-yl)-2-phenylquinoxaline-6-carboxylic acid], at PASK [2], the IC50 was under 10 µM.

For the compound `O=C(O)c1ccc2nc(-c3ccccc3)c(N3CCC(c4ccc(C(F)(F)F)cc4)CC3)nc2c1` [Example 7, 2-Phenyl-3-(4-(4-(trifluoromethyl)phenyl)piperidin-1-yl)quinoxaline-6-carboxylic acid], the IC50 on PASK [2] is under 10 µM.

For the compound `CN1CCN(c2nc3cc(C(=O)O)ccc3nc2-c2ccc(F)cc2)CC1=O` [Example 112, 2-(4-Fluorophenyl)-3-(4-methyl-3-oxopiperazin-1-yl)quinoxaline-6-carboxylic acid], the IC50 on PASK [1] was at most 10 µM.

Regarding `C[C@H]1CCCCN1c1nc2cc(C(=O)O)ccc2nc1-c1ccc(F)cc1` [Example 91, (S)-2-(4-Fluorophenyl)-3-(2-methylpiperidin-1-yl)quinoxaline-6-carboxylic acid], the IC50 at PASK [1] was at most 10 µM.

Take `O=C(O)c1ccc2nc(-c3ccccc3)c(N3CCCCCC3)nc2c1` [Example 14, 3-(Azepan-1-yl)-2-phenylquinoxaline-6-carboxylic acid]: on PASK [2], the IC50 was under 10 µM.

For `CN(c1nc2cc(C(=O)O)ccc2nc1-c1ccc(F)cc1)C1CCCC1` [Example 106, 3-(Cyclopentyl(methyl)amino)-2-(4-fluorophenyl)quinoxaline-6-carboxylic acid], the IC50 at PASK [1] was at most 10 µM.

Consider `O=C(O)c1ccc2nc(-c3ccccc3)c(-n3ccc4ccccc43)nc2c1` [Example 62, 3-(1H-Indol-1-yl)-2-phenylquinoxaline-6-carboxylic acid], for which, at PASK [1], the IC50 is at most 10 µM.

Regarding `CC(C)N(C)c1nc2cc(C(=O)O)ccc2nc1-c1cccnc1` [Example 97, 3-(Isopropyl(methyl)amino)-2-(pyridin-3-yl)quinoxaline-6-carboxylic acid], at PASK [1], the IC50 is at most 10 µM.

Turning to `O=C(O)c1ccc2nc(-c3ccccc3)c(N3CCN(c4ccc(C(F)(F)F)cc4)CC3)nc2c1` [Example 1, 2-Phenyl-3-(4-(4-(trifluoromethyl)phenyl)piperazin-1-yl)quinoxaline-6-carboxylic acid], the IC50 at PASK [2] was under 10 µM.

Turning to `CN(CCc1ccccc1)c1nc2cc(C(=O)O)ccc2nc1-c1ccccc1` [Example 42, 3-(Methyl(phenethyl)amino)-2-phenylquinoxaline-6-carboxylic acid], the IC50 on PASK [1] was at most 10 µM.
